Data on six molecules can be found in patent publication US9926324B2, “Heteroaromatic compounds as PI3 kinase modulators and methods of use” (Calitor Sciences, LLC, priority 2012, dated 2018).

Structures are written as SMILES. Read-outs that look alike come from different tables or passages of the source.

One series deals with T1, PI3K p110α/p85α (h) (Homo sapiens, UniProt P42336).
T1 construct: purchased Millipore UK Ltd (assay service)
The experiment in a line: PI3K p110α/p85α (h) non-radioactive HTRF assay. In kind it is biochemical. As for the experimental part: PI3K p110α/p85α (h) is incubated in assay buffer containing 10 μM phosphatidylinositol 4,5-bisphosphate and MgATP (concentration as required). The reaction is initiated by the addition of the ATP solution. After incubation for 30 minutes at room temperature, the reaction is stopped by the addition of stop solution containing EDTA and biotinylated phosphatidylinositol-3,4,5-trisphosphate. Finally, detection buffer is added, which contains europium-labelled anti-GST monoclonal antibody, GST-tagged GRP1 PH domain and streptavidin allophycocyanin. The plate is then read in timeresolved fluorescence mode and the homogenous time-resolved fluorescence (HTRF) signal is determined according to the formula HTRF=10000×(Em665 nm/Em620 nm).
(§1) The kinase assays described herein were performed at Millipore UK Ltd, Dundee Technology Park, Dundee DD2 1SW, UK.
For orientation: Time-resolved FRET reads energy transfer from a long-lived donor to a nearby acceptor.

The nature of series [1]: Compound stability in rat liver microsomes. Conditions: pH 7.4; for half-life at 5 μM: rat liver microsomes 0.5 mg protein/mL, compound 5 μM, NADPH 1.0 mM, 37° C., read-out: Rat T1/2; for CLint scaled at 5 μM: rat liver microsomes, in vivo CLint extrapolated. Format: in vitro ADME. As for the experimental part:
(§2) Human or rat liver microsomes incubations were conducted in duplicate in polypropylene tubes. The typical incubation mixtures consisted of human or rat liver microsomes (0.5 mg protein/mL), compounds of interest (5 μM) and NADPH (1.0 mM) in a total volume of 200 μL potassium phosphate buffer (PBS, 100 mM, pH=7.4). Compounds were dissolved in DMSO and diluted with PBS such that the final concentration of DMSO was 0.05%. The enzymatic reactions were commenced with the addition of […] after a 3-min preincubation and incubated in a water bath open to the air at 37° C. Reactions were terminated at various time points (0, 5, 10, 15, 30, 60 min) by adding equal volume of ice-cold acetonitrile. The samples were stored at −80° C. until LC/MS/MS assays.
(§3) The concentrations of compounds in the incubation mixtures of human or rat liver microsomes were determined by a LC/MS/MS method. The ranges of the linearity in the concentration range were determined for each tested compounds.
(§4) A parallel incubation was performed using denatured microsomes as the negative control, and reactions were terminated at various time points (0, 15, 60 min) after incubation at 37° C.
(§5) Dextromethorphan (70 μM) was selected as the positive control, and reactions were terminated at various time points (0, 5, 10, 15, 30, 60 min) after incubation at 37° C. Both positive and negative control samples were included in each assay to ensure the integrity of the microsomal incubation system.
(§6) The concentrations of compounds in human or rat liver microsome incubations were plotted as a percentage of the relevant zero time point control for each reaction. The in vivo CLint were extrapolated (ref: Naritomi Y, Terashita S, Kimura S, Suzuki A, Kagayama A, Sugiyama Y. Prediction of human hepatic clearance from in vivo animal experiments and in vitro metabolic studies with liver microsomes from animals and humans. Drug Metabolism and Disposition 2001, 29: 1316-1324).

The nature of series [2]: Pharmacokinetic profiles in rats after intravenous and oral administration. Conditions: for F: oral dose generally 5 or 10 mg/kg; for AUC(0-t) / half-life / Vd: rat, plasma; for Vd: read-out: Vss. In kind it is in vivo. As for the experimental part:
The compounds disclosed herein are assessed in pharmacokinetic studies in mice, rats, dogs or monkeys. The compounds are administered as a water solution, 2% HPMC+1% TWEEN® 80 in water solution, 5% DMSO+5% solutol in saline, 4% MC suspension or capsule. For the intravenous administration, the animals are generally given at 1 or 2 mg/kg dose. For the oral (p.o.) dosing, mice and rats are generally given 5 or 10 mg/kg dose, and dogs and monkeys are generally given 10 mg/kg dose. The blood samples (0.3 mL) are drawn at 0.25, 0.5, 1.0, 2.0, 3.0, 4.0, 6.0, 8.0, 12 and 24 h time points or 0.083, 0.25, 0.5, 1.0, 2.0, 4.0, 6.0, 8.0 and 24 h time points and centrifuged at 3,000 or 4000 rpm for 2 to 10 min. The plasma solutions are collected, stored at −20° C. or −70° C. until analyzed by LC/MS/MS as described above.

The target in the next series is T2, mTOR (h) (Homo sapiens, UniProt P42345).
T2 construct: purchased Millipore UK Ltd (assay service)
In words: mTOR (h) kinase assay (33P-ATP, filter). In kind it is biochemical. As for the experimental part:
mTOR (h) is incubated with 50 mM HEPES pH 7.5, 1 mM EDTA, 0.01% Tween 20, 2 mg/mL substrate, 3 mM Manganese Chloride and [γ-^33P-ATP] (specific activity approx. 500 cpm/pmol, concentration as required). The reaction is initiated by the addition of the MnATP mix. After incubation for 40 minutes at room temperature, the reaction is stopped by the addition of 3% phosphoric acid solution. 10 μL of the reaction is then spotted onto a P30 filtermat and washed three times for 5 minutes in 75 mM phosphoric acid and once in methanol prior to drying and scintillation counting.
as §1

Series [3] is described as follows: Compound stability in human liver microsomes. In kind it is in vitro ADME. Conditions: pH 7.4; for half-life at 5 μM: human liver microsomes 0.5 mg protein/mL, compound 5 μM, NADPH 1.0 mM, 37° C., read-out: Human T1/2; for CLint scaled at 5 μM: human liver microsomes, in vivo CLint extrapolated. As for the experimental part:
as §2, §3, §4, §5, §6

The test system of a further series is U87MG glioblastoma cells. In words: Tumor xenograft model (U87MG), tumor growth inhibition. In kind it is in vivo, athymic nude mice. Conditions: 14 days. As for the experimental part:
The efficacy of compounds disclosed herein was evaluated in a standard murine model of tumorigenesis. Human tumor cells (U87MG glioblastoma cells from ATCC) were expended in culture, harvested, and injected subcutaneously onto the rear flank of 6-7 week old female athymic nude mice (BALB/cA nu/nu, Hunan SLAC Laboratory Animal, Co.) (n=6-10 for vehicle group and for each dosing group). When tumors reached a volume of 100-250 mm^3, animals were randomly divided into vehicle control (for example, 5% DMSO+70% Captisol® (30%), 7% HCl (pH1), 18% Captisol® (30%); or 7% DMSO, 7% HCl (pH1), 70% Captisol® (30%), 16% Captisol® (30%), or the like) and compound groups. Subsequent administration of compound by oral gavage begins anywhere from day 0 to day 15 post tumor cell challenge and generally continues with once a day for the duration of the experiment.
Progression of tumor growth is assessed by tumor volumes and recorded as a function of time. The long (L) and short (W) axes of the subcutaneous tumors were measured with calipers twice weekly, and the tumor volume (TV) calculated as (L×W^2)/2). TGI was calculated from the difference between the median tumor volumes of vehicle-treated and drug-treated mice, expressed as a percentage of the median tumor volume of the vehicle-treated control group, by the following relation:
Initial statistical analysis is done by repeated measures analysis of variance (RMANOVA), followed by Scheffe psot hoc testing for multiple comparisons. Vehicle alone (5% DMSO+70% Captisol® (30%), 7% HCl (pH1), 18% Captisol® (30%); or 7% DMSO, 7% HCl (pH1), 70% Captisol® (30%), 16% Captisol® (30%), or the like) is the negative control.

T1 sequence (P42336 whole entry): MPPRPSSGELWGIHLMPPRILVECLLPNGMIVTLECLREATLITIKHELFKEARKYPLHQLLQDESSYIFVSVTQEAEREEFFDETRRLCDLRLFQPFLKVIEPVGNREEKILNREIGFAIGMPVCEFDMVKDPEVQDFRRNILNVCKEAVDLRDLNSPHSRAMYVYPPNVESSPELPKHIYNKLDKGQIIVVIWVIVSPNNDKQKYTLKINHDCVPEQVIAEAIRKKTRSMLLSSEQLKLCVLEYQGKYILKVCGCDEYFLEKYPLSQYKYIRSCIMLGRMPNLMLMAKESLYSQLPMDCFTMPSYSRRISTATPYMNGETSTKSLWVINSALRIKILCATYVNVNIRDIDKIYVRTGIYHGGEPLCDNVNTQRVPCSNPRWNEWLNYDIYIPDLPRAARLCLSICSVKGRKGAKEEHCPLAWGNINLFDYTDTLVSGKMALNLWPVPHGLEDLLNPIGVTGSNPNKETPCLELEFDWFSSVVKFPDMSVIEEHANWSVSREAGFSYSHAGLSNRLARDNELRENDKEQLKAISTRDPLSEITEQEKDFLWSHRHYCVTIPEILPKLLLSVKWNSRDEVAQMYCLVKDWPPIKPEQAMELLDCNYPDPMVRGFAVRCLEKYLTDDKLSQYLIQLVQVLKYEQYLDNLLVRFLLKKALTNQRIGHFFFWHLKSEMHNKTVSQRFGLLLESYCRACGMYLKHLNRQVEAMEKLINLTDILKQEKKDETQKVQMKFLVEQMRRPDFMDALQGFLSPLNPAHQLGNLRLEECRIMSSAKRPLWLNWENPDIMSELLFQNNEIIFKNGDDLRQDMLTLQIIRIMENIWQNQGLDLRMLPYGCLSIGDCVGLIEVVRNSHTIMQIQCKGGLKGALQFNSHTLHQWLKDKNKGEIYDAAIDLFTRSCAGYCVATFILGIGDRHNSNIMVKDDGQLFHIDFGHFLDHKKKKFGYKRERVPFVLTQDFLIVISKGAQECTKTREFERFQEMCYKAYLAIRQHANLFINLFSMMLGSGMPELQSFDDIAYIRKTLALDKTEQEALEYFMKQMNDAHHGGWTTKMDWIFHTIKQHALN
T1 sequence (P27986 whole entry partner): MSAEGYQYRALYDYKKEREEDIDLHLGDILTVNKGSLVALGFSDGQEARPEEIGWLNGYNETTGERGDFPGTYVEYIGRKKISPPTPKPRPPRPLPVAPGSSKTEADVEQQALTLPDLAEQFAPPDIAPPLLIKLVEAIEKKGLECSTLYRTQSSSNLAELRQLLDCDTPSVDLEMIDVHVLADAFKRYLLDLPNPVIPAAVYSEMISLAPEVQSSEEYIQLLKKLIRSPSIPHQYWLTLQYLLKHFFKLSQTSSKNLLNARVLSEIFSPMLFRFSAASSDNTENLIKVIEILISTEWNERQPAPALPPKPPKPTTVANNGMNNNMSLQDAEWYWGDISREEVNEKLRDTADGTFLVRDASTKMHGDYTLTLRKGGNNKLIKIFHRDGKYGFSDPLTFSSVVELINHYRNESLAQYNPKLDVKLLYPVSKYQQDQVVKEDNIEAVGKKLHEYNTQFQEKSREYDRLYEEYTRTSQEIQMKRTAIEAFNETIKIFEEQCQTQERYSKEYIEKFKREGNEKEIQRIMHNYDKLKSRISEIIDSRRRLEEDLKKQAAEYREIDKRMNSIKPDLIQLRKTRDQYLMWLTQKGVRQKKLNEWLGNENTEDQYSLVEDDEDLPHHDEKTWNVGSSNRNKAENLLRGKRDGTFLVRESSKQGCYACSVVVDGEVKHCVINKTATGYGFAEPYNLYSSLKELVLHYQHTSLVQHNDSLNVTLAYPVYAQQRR

Broadly, the IC50 is the point on the concentration scale where inhibition reaches its midpoint. By CLint scaled is commonly meant the capacity of the preparation to metabolise the compound, expressed as a volume cleared per time. Broadly, the AUC(0-t) is exposure summed from dosing to a finite time, without extrapolation to infinity. With `C#Cc1cnc2ccc(-c3cnc(OC)c(NS(=O)(=O)c4ccc(F)cc4)c3)nn12` [Ex. 1, N-(5-(3-ethynylimidazo[1,2-b]pyridazin-6-yl)-2-methoxypyridin-3-yl)-4-fluorobenzenesulfonamide], the IC50 at PI3K p110α/p85α (h) was found to be 0.014 µM. In series [1], the half-life at 5 μM turned out to be 1.62 h and the CLint scaled at 5 μM is 1.53 L/h/kg. The molecule further came in with a F in series [2] (iv dose 1 mg/kg) of 96.0%. In series [2] (iv dosing 1 mg/kg), the Cl/F is 0.14 L/h/kg, the AUC(0-t) stood at 6.54 µg·h/mL, the half-life was 6.39 h and the Vd worked out at 1 L/kg. For the same molecule, the IC50 at mTOR (h) was 0.023 µM. Besides, in series [3], the half-life at 5 μM worked out at 2.69 h and the CLint scaled at 5 μM is 0.646 L/h/kg.

Regarding `COc1ncc(-c2ccc3ncc(C#CCO)n3n2)cc1NS(=O)(=O)c1ccc(F)cc1` [Ex. 2, 4-fluoro-N-(5-(3-(3-hydroxyprop-1-yn-1-yl)imidazo[1,2-b]pyridazin-6-yl)-2-methoxypyridin-3-yl)benzenesulfonamide], the “TGI % U87MG” value with U87MG glioblastoma cells (1 mg/kg oral gavage) was found to be 6%. The “TGI % U87MG” value in the series with U87MG glioblastoma cells (3 mg/kg oral gavage) was found to be 21%. Also, in the series on U87MG glioblastoma cells (10 mg/kg oral gavage), the “TGI % U87MG” value is reported as 35%. For the same molecule, the IC50 on PI3K p110α/p85α (h) is 0.006 µM. Besides, the F in series [2] (iv dose 2 mg/kg) amounted to 56.1%. Further, in series [2] (iv dosing 2 mg/kg), the Cl/F was 0.10 L/h/kg, the AUC(0-t) came out at 20.7 µg·h/mL, the half-life was 3.42 h and the Vd is 0.22 L/kg. The IC50 on mTOR (h) was 0.029 µM.

Take `COc1ncc(-c2ccc3ncc(C#CC(C)O)n3n2)cc1NS(=O)(=O)c1ccc(F)cc1` (centres unmarked) [Ex. 3, 4-fluoro N (5 (3 (3 hydroxybut-1-yn-1-yl)imidazo[1,2-b]pyridazin-6-yl)-2-methoxypyridin-3-yl)benzenesulfonamide]: on PI3K p110α/p85α (h), the IC50 is 0.012 µM. In series [1], the half-life at 5 μM stood at 0.843 h and the CLint scaled at 5 μM was 2.95 L/h/kg. In series [2] (iv dose 2 mg/kg), this molecule displayed an F of 61.5%. Moreover, in series [2] (iv dosing 2 mg/kg), the Cl/F is 0.07 L/h/kg, the AUC(0-t) was found to be 29 µg·h/mL, the half-life was 3.11 h and the Vd was determined as 0.16 L/kg. The molecule also came in with an IC50 at mTOR (h) of 0.016 µM. In series [3], the half-life at 5 μM stood at 2.4 h and the CLint scaled at 5 μM was 0.724 L/h/kg.

On to `COc1ncc(-c2ccc3ncc(C#CC(C)(C)O)n3n2)cc1NS(=O)(=O)c1ccc(F)cc1` [Ex. 4, 4-fluoro-N-(5-(3-(3-hydroxy-3-methylbut-1-yn-1-yl)imidazo[1,2-b]pyridazin-6-yl)-2-methoxypyridin-3-yl)benzenesulfonamide], for which the IC50 was 0.041 µM on PI3K p110α/p85α (h) and 0.019 µM against mTOR (h). Further, the results for the half-life at 5 μM in series [1] and in series [3] were 0.666 h and 1.87 h, respectively. The CLint scaled at 5 μM in series [1] was 3.73 L/h/kg; in series [3], 0.931 L/h/kg.

In the case of `C#Cc1cnc2ccc(-c3cnc(Cl)c(NS(=O)(=O)c4ccc(F)cc4)c3)nn12` [Ex. 7, N-(2-chloro-5-(3-ethynylimidazo[1,2-b]pyridazin-6-yl)pyridin-3-yl)-4-fluorobenzenesulfonamide], the IC50 on PI3K p110α/p85α (h) stood at 0.02 µM. This molecule also returned a F in series [2] (iv dose 2 mg/kg) of 95.4%. Besides, in series [2] (iv dosing 2 mg/kg), the Cl/F was 0.04 L/h/kg, the exposure AUC(0-t) is 48.1 µg·h/mL, the half-life is 3.19 h and the Vd came out at 0.17 L/kg. The IC50 on mTOR (h) is 0.024 µM.

In the case of `C#Cc1cnc2ccc(-c3cnc(OC)c(NS(=O)(=O)c4ccc(F)cc4F)c3)nn12` [Ex. 8, N-(5-(3-ethynylimidazo[1,2-b]pyridazin-6-yl)-2-methoxypyridin-3-yl)-2,4-difluorobenzenesulfonamide], the IC50 on PI3K p110α/p85α (h) turned out to be 0.006 µM. In series [1], the half-life at 5 μM is 1.25 h and the CLint scaled at 5 μM is 1.99 L/h/kg. The molecule also displayed a F in series [2] (iv dose 2 mg/kg) of 115.1%. Also, in series [2] (iv dosing 2 mg/kg), the Cl/F came out at 0.13 L/h/kg, the AUC(0-t) was 16.6 µg·h/mL, the half-life is 3.02 h and the Vd was found to be 0.37 L/kg. The molecule further had an IC50 on mTOR (h) of 0.012 µM. In series [3], the half-life at 5 μM is 4.04 h and the CLint scaled at 5 μM was 0.43 L/h/kg.
